Results as given in patent US6337074B1, “Anti-herpesviral agent” (priority 1996, dated 2002).
Read-outs that look alike come from different tables or passages of the source. No end group written: not given here.

How the values were obtained:
POL/UL8 interaction [1] = molecular target: T1, POL/UL8 interaction (Human herpesvirus 1, UniProt P04293); experiment: biochemical; assay type: binding, HSV-1; conditions: for Inhibition of the POL/UL8 interaction (in words): FIG. 6
T1 construct: made in house; host or cells: Spodoptera frugiperda (Sf) cells infected with recombinant baculoviruses AcUL30 and AcUL8
Text: POL/UL8 interaction assays. ELISA assays, similar to that described for POL/UL42 (Marsden et al., 1994) were established with purified POL and UL8 proteins. POL was extracted from Sf cells infected with recombinant baculovirus AcUL30 and purified as described by Gottlieb et al. (1990) with minor modifications (Marsden et al., 1994). UL8 protein was extracted from Sf cells infected with recombinant baculovirus AcUL8 and purified as described by Parry et al., (1993) but substituting phenyl-Sepharose by hydroxylapatite chromatography (Dodson and Lehman, 1991). Both proteins were diluted in PBS to the required concentrations. For the first assay, microtiter wells were coated overnight with 0.02 μg of purified POL and blocked with 100 μl of 2% BSA in PBS for 1 h at 37° C. After blocking, the plates were washed extensively with PBS containing 0.3% Tween 20 and blotted dry. Then 50 μl of purified UL8, at the concentrations indicated in the text, were added to each well and incubated for 1 h at 37° C. […] The wells were again extensively washed and bound MAb was detected with 50 μl/well of HRP-conjugated goat anti-mouse IgG (Sigma) diluted 1:500 in PBS containing 2% FCS and chromogenic substrate ABTS. For the second assay, POL and UL8 proteins were added in the reverse order. Microtitre wells were coated overnight with 0.02 to 0.04 μg of purified UL8 protein and bound POL was detected with a POL-specific MAB 13185 (Marsden et al., 1996) diluted 1:100. Other aspects of the two assays were identical. MAbs, diluted in PBS plus 2% fetal calf serum, and peptides, diluted in 100 mM Tris-HCl (pH 8.0) plus 0.1% Tween 20, were added to the interaction assay as described in the text.
Inhibition of the POL/UL8 interaction by UL8 peptides. […] Peptides were dissolved in 100 mM Tris-HCl (pH 8.0) plus 0.1% Tween 20 at different concentrations and incubated with POL for 15 min to allow the peptides to bind to POL. The mixtures were then added to microtiter wells coated with UL8 and the amount of POL bound was determined after 1 h. […] The concentration of each peptide required to reduce POL binding by 50% (the IC50 value) was determined in at least 3, and on average 5, independent experiments.
The jumbled peptide, 7J, was made by linking residues from alternately the N- and C-termini of peptide 7. Thus, if the order of the 20 residues in peptide 7 is represented as 1, 2, 3, . . . 18, 19, 20, that in 7J was 1, 20, 2, 19, . . . […].
We next investigated whether the preincubation step was necessary.

UL54/UL102 interaction = molecular target: T2, UL54/UL102 interaction (Human cytomegalovirus, UniProt P08546); experiment: UL54/UL102 interaction ELISA, inhibition by UL102 peptides; assay type: binding, HCMV
T2 construct: made in house; host or cells: Spodoptera frugiperda (Sf) cells infected with recombinant baculoviruses AcUL54 and AcUL102
Protocol: UL54/UL102 interaction assays. ELISA assays, similar to those described for HSV-1 POL/UL8 (see Example 1 above) were established with purified HCMV UL54 and UL102 proteins. […] The wells were again extensively washed and bound antibody was detected with 50 μl/well of HRP-conjugated protein A (Sigma) diluted 1:500 in PBS containing 2% FCS. After further washes, chromogenic substrate ABTS was added.
Inhibition of the UL54/UL102 interaction by UL102 peptides. […] To do this, the peptides listed in Table 4 were tested for their ability to block the interaction of HCMV UL102 with HCMV UL54. […] The amount of UL54 bound was determined after 1 h by measuring the absorbance at 405 nm as described. The absorbance in the absence of any peptide, 1.061±0.033, was determined from six wells. The background absorbance in the absence of any UL54, 0.240±0.025, was also determined from six wells and was subtracted from all values. […] The concentration of each peptide required to reduce UL54-binding by 50% (the IC50 value) was determined and is listed in Table 4.

[2] = Solubility of peptides in assay buffer; assay type: physicochemical; conditions: 100 mM Tris-HCl (pH 8.0) plus 0.1% Tween 20
POL/UL8 interaction [3] = molecular target: T1, POL/UL8 interaction; experiment: biochemical; assay type: binding, HSV-1; conditions: IC50 value for inhibition of the POL/UL8 interaction, FIG. 8; no pre-incubation, peptide added a few seconds after POL
[4] = IC50 value for inhibition of the POL/UL8 interaction, experiment shown in FIG. 7, 15 min pre-incubation with POL

T1 sequence (P04293 whole entry): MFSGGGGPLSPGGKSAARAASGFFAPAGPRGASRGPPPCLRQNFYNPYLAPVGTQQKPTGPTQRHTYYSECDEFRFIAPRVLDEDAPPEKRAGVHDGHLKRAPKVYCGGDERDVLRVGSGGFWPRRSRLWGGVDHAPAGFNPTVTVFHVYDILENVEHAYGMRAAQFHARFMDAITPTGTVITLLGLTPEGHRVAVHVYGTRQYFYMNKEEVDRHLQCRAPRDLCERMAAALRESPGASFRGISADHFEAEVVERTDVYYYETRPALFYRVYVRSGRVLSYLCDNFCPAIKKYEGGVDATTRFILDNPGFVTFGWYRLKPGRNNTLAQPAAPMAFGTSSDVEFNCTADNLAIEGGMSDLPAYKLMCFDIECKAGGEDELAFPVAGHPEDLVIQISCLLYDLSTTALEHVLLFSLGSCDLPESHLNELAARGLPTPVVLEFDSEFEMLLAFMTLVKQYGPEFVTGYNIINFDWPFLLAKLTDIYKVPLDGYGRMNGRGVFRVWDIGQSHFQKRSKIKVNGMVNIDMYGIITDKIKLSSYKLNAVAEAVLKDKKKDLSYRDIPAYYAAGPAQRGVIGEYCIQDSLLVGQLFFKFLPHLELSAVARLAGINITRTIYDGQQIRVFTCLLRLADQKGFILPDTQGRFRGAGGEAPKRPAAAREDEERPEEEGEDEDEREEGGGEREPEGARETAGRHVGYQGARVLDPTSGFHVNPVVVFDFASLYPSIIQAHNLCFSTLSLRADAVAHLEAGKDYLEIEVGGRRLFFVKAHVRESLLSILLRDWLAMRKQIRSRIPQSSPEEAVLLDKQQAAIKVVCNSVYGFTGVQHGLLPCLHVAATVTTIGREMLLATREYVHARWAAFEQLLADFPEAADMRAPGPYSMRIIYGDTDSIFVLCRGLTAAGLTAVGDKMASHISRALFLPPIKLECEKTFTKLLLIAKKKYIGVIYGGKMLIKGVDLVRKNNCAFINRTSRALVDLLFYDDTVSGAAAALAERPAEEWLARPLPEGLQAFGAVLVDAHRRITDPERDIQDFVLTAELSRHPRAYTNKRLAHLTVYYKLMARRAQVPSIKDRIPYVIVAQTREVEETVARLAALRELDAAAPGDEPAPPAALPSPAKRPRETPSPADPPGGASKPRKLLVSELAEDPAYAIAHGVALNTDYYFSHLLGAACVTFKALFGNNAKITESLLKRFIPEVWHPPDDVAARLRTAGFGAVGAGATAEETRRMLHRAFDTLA
T2 sequence (P08546 whole entry): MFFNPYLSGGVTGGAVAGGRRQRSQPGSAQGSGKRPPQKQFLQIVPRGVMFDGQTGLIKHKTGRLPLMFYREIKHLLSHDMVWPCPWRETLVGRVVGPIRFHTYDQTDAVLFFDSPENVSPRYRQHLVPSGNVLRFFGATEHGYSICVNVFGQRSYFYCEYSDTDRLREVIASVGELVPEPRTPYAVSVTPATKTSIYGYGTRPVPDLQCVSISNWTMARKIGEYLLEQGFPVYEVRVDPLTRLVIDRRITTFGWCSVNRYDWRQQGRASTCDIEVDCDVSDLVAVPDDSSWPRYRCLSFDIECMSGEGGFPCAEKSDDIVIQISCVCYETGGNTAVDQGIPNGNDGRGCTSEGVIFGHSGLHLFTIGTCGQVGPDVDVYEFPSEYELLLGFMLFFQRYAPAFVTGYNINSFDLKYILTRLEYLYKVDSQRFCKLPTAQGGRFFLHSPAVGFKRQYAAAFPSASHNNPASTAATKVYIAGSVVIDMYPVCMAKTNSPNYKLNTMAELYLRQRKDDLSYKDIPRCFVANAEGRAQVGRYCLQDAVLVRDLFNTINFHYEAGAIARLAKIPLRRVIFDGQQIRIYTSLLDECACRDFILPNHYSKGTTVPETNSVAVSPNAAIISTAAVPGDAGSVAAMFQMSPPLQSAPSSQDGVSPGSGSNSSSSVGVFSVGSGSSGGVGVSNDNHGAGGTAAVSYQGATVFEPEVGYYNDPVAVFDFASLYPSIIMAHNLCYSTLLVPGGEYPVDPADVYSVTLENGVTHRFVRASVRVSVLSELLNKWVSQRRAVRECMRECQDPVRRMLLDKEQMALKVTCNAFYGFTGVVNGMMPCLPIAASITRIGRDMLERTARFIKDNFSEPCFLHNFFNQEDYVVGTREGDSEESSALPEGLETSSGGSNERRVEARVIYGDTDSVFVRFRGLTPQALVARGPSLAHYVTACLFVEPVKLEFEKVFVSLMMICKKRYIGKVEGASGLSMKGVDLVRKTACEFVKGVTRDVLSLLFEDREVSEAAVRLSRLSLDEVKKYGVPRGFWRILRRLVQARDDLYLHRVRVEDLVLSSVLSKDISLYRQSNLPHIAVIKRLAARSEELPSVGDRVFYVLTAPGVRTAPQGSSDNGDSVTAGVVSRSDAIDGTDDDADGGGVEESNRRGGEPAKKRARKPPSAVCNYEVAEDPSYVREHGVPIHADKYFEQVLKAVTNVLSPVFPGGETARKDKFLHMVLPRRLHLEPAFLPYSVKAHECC

Question: Which results are given for `CC[C@H](C)[C@H](NC(=O)[C@@H]1CCCN1C(=O)[C@H](CCC(=O)O)NC(=O)[C@H](CCCCN)NC(=O)[C@H](CCC(=O)O)NC(=O)[C@H](CC(C)C)NC(=O)[C@H](CCC(N)=O)NC(=O)[C@H](Cc1ccc(O)cc1)NC(=O)[C@H](Cc1c[nH]c2ccccc12)NC(=O)[C@H](CC(C)C)NC(=O)[C@H](CCCCN)NC(=O)[C@@H](N)C(C)C)C(=O)N[C@H](C(=O)NCC(=O)N[C@@H](C)C(=O)O)C(C)C` [Peptide RT85, reference compound]?
Answer: IC50 (POL/UL8 interaction [1]): > 250 µM; IC50 (UL54/UL102 interaction): > 200 µM

Question: Which IC50 (POL/UL8 interaction [1]) does the source give for IELVFTGVLAGVWGEGGKFV [Peptide 7] here?
Answer: 2.3 ± 2.2 µM

Question: What about the “Inhibition of the POL/UL8 interaction (in words)” value (POL/UL8 interaction [1]) of the same molecule?
Answer: markedly inhibitory

Question: What about the IC50 (POL/UL8 interaction [1]; IC50 value for inhibition of the POL/UL8 interaction, FIG. 8, peptide pre-incubated with POL for 15 min) of the same molecule?
Answer: ~1 µM

Question: What about the IC50 (POL/UL8 interaction [1]; [4]) of the same molecule?
Answer: ~1 µM

Question: What about the “Solubility (in words)” value [2] of the same molecule?
Answer: limited solubility

Question: And the IC50 (POL/UL8 interaction [3])?
Answer: ~1 µM

Question: Which IC50 (POL/UL8 interaction [1]) does the source give for “IVEFLKVGFGTEGGVWLVAG [Peptide 7J, reference compound]” here?
Answer: > 20 µM

Question: And the IC50 (POL/UL8 interaction [1]; [4])?
Answer: > 20 µM

Question: Which IC50 (POL/UL8 interaction [1]) does the source give for EILREIELVFTGVLA [Peptide 8] here?
Answer: > 250 µM

Question: Which IC50 (POL/UL8 interaction [1]) does the source give for TGVLAGVWGEGGKFV [Peptide 6] here?
Answer: > 250 µM

Question: With VLAGVWGEGGKFVYPFDDKMSFLFA [Peptide 3] as the molecule, how does the IC50 (POL/UL8 interaction [1]) read?
Answer: > 250 µM

Question: Which IC50 (POL/UL8 interaction [1]) does the source give for TGVLAGVWGEGGKFVYPFDDKMSFLFA [Peptide 4] here?
Answer: > 250 µM

Question: For “VFTGVLAGVWGEGGKFVYPFDDKMSFLFA [Peptide 5]”, which IC50 (POL/UL8 interaction [1]) is on record?
Answer: 66 ± 22 µM

Question: And the “Inhibition of the POL/UL8 interaction (in words)” value (POL/UL8 interaction [1])?
Answer: markedly inhibitory

Question: And the “Solubility (in words)” value [2]?
Answer: limited solubility
